The target of this assay is T1, Recombinant human LTC4 synthase (Homo sapiens, UniProt Q16873).
T1 construct: made in house; host or cells: Pichia pastoris ('Piccia pastoralis' [sic])
T1 sequence (Q16873 1-150): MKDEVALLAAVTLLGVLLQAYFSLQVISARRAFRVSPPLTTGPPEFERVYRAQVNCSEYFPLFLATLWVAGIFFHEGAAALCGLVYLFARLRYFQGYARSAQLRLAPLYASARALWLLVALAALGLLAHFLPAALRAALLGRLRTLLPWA
Nature of the assay: LTC4 synthase assay (conversion of LTA4 methyl ester to LTC4 methyl ester, HPLC). The following applies: inhibitor concentration 10 μM; read-out: Percantage Inhibition at 10 μM (unless specified otherwise). It is filed as biochemical. How it is done: In the assay LTC4 synthase catalyses the reaction where the substrate LTA4 methyl ester is converted to LTC4 methyl ester. Recombinant human LTC4 synthase is expressed in Piccia pastoralis and the purified enzyme is dissolved in 25 mM Tris-buffer pH 7.8 and stored at −20° C. The assay is performed in phosphate buffered saline (PBS) pH 7.4, supplemented with 5 mM glutathione (GSH). The reaction is terminated by addition of acetonitrile/MeOH/acetic acid (50/50/1). The assay is performed at rt in 96-well plates. Analysis of the formed LTC4 methyl ester is performed with reversed phase HPLC (Waters 2795 utilizing an Onyx Monolithic C18 column). The mobile phase consists of acetonitrile/MeOH/H2O (32.5/30/37.5) with 1% acetic acid pH adjusted with NH3 to pH 5.6, and absorbance measured at 280 nm with a Waters 2487 UV-detector.
The following is added chronologically to each well: • 1. 50 μl assay buffer, PBS with 5 mM GSH. • 2. 0.5 μl inhibitor in DMSO. • 3. 2 μl LTC4 synthase in PBS. The total protein concentration in this solution is 0.025 mg/ml. Incubation of the plate at room temperature for 10 minutes. • 4. 0.5 μl LTA4 methyl ester. Incubation of the plate at rt for 1 min. • 5. 50 μl stop solution. 80 μl of the incubation mixture is analysed with HPLC.
`O=C(Nc1ccc(C(=O)c2ccc(Nc3ccc(F)c(F)c3)c(C(=O)O)c2)cc1)Nc1cccc(Cl)c1` [5:1, 5-{4-[3-(3-Chloro-phenyl)-ureido]-benzoyl}-2-(3,4-difluoro-phenylamino)-benzoic acid]: the inhibition at 10 µM was 95%. On to `CCOc1ccc(NC(=O)Nc2ccc(C(=O)c3ccc(Nc4ccc(F)c(F)c4)c(C(=O)O)c3)cc2)cc1` [5:2, 2-(3,4-Difluoro-phenylamino)-5-{4-[3-(4-ethoxy-phenyl)-ureido]-benzoyl}-benzoic acid], for which the inhibition at 10 µM stood at 100%. Turning to `O=C(c1ccc(Nc2ccc(F)c(F)c2)cc1)c1ccc(Nc2ccc(F)c(F)c2)c(C(=O)O)c1` [5:3, 2-(3,4-Difluoro-phenylamino)-5-[4-(3,4-difluoro-phenylamino)-benzoyl]-benzoic acid], the inhibition at 10 µM was 84%. On to `O=C(c1ccc(NC(=O)c2cc(Cl)ccc2O)cc1)c1ccc(Nc2ccc(F)c(F)c2)c(C(=O)O)c1` [5:4, 5-[4-(5-Chloro-2-hydroxy-benzoylamino)-benzoyl]-2-(3,4-difluoro-phenylamino)-benzoic acid], for which the inhibition at 10 µM turned out to be 78%.

With `O=C(c1ccc(NC(=O)c2ccccc2Cl)cc1)c1ccc(Nc2ccc(F)c(F)c2)c(C(=O)O)c1` [5:5, 5-[4-(2-Chloro-benzoylamino)-benzoyl]-2-(3,4-difluoro-phenylamino)-benzoic acid], the inhibition at 10 µM came to 97%. In the case of `O=C(c1ccc(Nc2ccc(Cl)cn2)cc1)c1ccc(Nc2ccc(F)c(F)c2)c(C(=O)O)c1` [5:6, 5-[4-(5-Chloro-pyridin-2-ylamino)-benzoyl]-2-(3,4-difluoro-phenylamino)-benzoic acid], the inhibition at 10 µM is 84%. As to `O=C(c1ccc(Nc2ccc(Cl)nc2)cc1)c1ccc(Nc2ccc(F)c(F)c2)c(C(=O)O)c1` [5:7, 5-[4-(6-Chloro-pyridin-3-ylamino)-benzoyl]-2-(3,4-difluoro-phenylamino)-benzoic acid], the inhibition at 10 µM was determined as 90%. Consider `O=C(c1ccc(NC(=O)c2cc(Cl)ccc2Cl)cc1)c1ccc(Nc2ccc(F)c(F)c2)c(C(=O)O)c1` [5:10, 5-[4-(2,5-Dichloro-benzoylamino)-benzoyl]-2-(3,4-difluoro-phenylamino)-benzoic acid], for which the inhibition at 10 µM turned out to be 98%. Take `O=C(Nc1ccc(C(=O)c2ccc(Nc3ccc(F)c(F)c3)c(C(=O)O)c2)cc1)c1cccc(Cl)c1` [5:11, 5-[4-(3-Chloro-benzoylamino)-benzoyl]-2-(3,4-difluoro-phenylamino)-benzoic acid]: the inhibition at 10 µM was 87%. On to `O=C(c1ccc(NC(=O)c2cc(Cl)cnc2Cl)cc1)c1ccc(Nc2ccc(F)c(F)c2)c(C(=O)O)c1` [5:12, 5-{4-[(2,5-Dichloro-pyridine-3-carbonyl)-amino]-benzoyl}-2-(3,4-difluoro-phenylamino)-benzoic acid], for which the inhibition at 10 µM worked out at 98%.

As to `CN(c1ccc(Cl)cc1)c1ccc(C(=O)c2ccc(Oc3ccc(Cl)cc3)c(C(=O)O)c2)cc1` [6:1, 2-(4-Chloro-phenoxy)-5-{4-[(4-chloro-phenyl)-methyl-amino]-benzoyl}-benzoic acid], the inhibition at 10 µM is 62%. As for `CN(c1ccc(Cl)cc1)c1ccc(C(=O)c2ccc(Oc3cccc(Cl)c3)c(C(=O)O)c2)cc1` [6:2, 2-(3-Chloro-phenoxy)-5-{4-[(4-chloro-phenyl)-methyl-amino]-benzoyl}-benzoic acid], the figure is 96%. As for `CN(c1ccc(Cl)cc1)c1ccc(C(=O)c2ccc(Oc3ccc(F)c(F)c3)c(C(=O)O)c2)cc1` [6:3, 5-{4-[(4-Chloro-phenyl)-methyl-amino]-benzoyl}-2-(3,4-difluoro-phenoxy)-benzoic acid], the figure is 90%. On to `CN(c1ccc(Cl)cc1)c1ccc(C(=O)c2ccc(Oc3ccccc3Cl)c(C(=O)O)c2)cc1` [6:4, 2-(2-Chloro-phenoxy)-5-{4-[(4-chloro-phenyl)-methyl-amino]-benzoyl}-benzoic acid], for which the inhibition at 10 µM was 97%. Turning to `COc1cc(Cl)ccc1Oc1ccc(C(=O)c2ccc(N(C)c3ccc(Cl)cc3)cc2)cc1C(=O)O` [6:5, 2-(4-Chloro-2-methoxy-phenoxy)-5-{4-[(4-chloro-phenyl)-methyl-amino]-benzoyl}-benzoic acid], the inhibition at 10 µM was found to be 98%. On to `CN(c1ccc(Cl)cc1)c1ccc(C(=O)c2ccc(Oc3cccc(Cl)c3F)c(C(=O)O)c2)cc1` [6:6, 2-(3-Chloro-2-fluoro-phenoxy)-5-{4-[(4-chloro-phenyl)-methyl-amino]-benzoyl}benzoic acid], for which the inhibition at 10 µM was 83%. As to `CN(c1ccc(Cl)cc1)c1ccc(C(=O)c2ccc(Oc3cccc(C(F)(F)F)c3F)c(C(=O)O)c2)cc1` [6:7, 5-{4-[(4-Chloro-phenyl)-methyl-amino]-benzoyl}-2-(2-fluoro-3-trifluoromethyl-phenoxy)-benzoic acid], the inhibition at 10 µM is 96%. As for `CN(c1ccc(Cl)cc1)c1ccc(C(=O)c2ccc(Oc3ccccc3OC(F)(F)C(F)F)c(C(=O)O)c2)cc1` [6:8, 5-{4-[(4-Chloro-phenyl)-methyl-amino]-benzoyl}-2-[2-(1,1,2,2-tetrafluoro-ethoxy)-phenoxy]-benzoic acid], the figure is 98%; as for `CN(c1ccc(Cl)cc1)c1ccc(C(=O)c2ccc(Oc3cccc(Cl)c3Cl)c(C(=O)O)c2)cc1` [6:9, 5-{4-[(4-Chloro-phenyl)-methyl-amino]-benzoyl}-2-(2,3-dichloro-phenoxy)-benzoic acid], 66%. Regarding `CN(c1ccc(Cl)cc1)c1ccc(C(=O)c2ccc(Oc3cccc4c3CCCC4)c(C(=O)O)c2)cc1` [6:10, 5-{4-[(4-Chloro-phenyl)-methyl-amino]-benzoyl}-2-(5,6,7,8-tetrahydro-naphthalen-1-yloxy)-benzoic acid], the inhibition at 10 µM amounted to 88%. For `O=C(Nc1ccc(C(=O)c2ccc(NC(=O)c3cccc(Cl)c3)c(C(=O)O)c2)cc1)c1cccc(Cl)c1` [7:1, 2-(3-Chloro-benzoylamino)-5-[4-(3-chloro-benzoylamino)-benzoyl]-benzoic acid], the inhibition at 10 µM is 97%. `O=C(Nc1ccc(C(=O)c2ccc(NS(=O)(=O)c3ccc(Cl)cc3)c(C(=O)O)c2)cc1)c1cccc(Cl)c1` [7:2, 2-(4-Chloro-benzenesulfonylamino)-5-[4-(3-chloro-benzoylamino)-benzoyl]-benzoic acid]: the inhibition at 10 µM was determined as 100%.

As to `COc1ccc(Cl)cc1S(=O)(=O)Nc1ccc(C(=O)c2ccc(NC(=O)c3cccc(Cl)c3)cc2)cc1C(=O)O` [7:3, 5-[4-(3-Chloro-benzoylamino)-benzoyl]-2-(5-chloro-2-methoxy-benzenesulfonylamino)-benzoic acid], the inhibition at 10 µM worked out at 96%. For the molecule `O=C(Nc1ccc(C(=O)c2ccc(NC(=O)c3cccc(F)c3F)c(C(=O)O)c2)cc1)c1cccc(Cl)c1` [7:4, 5-[4-(3-Chloro-benzoylamino)-benzoyl]-2-(2,3-difluoro-benzoylamino)-benzoic acid], the inhibition at 10 µM is 100%. On to `O=C(Nc1ccc(C(=O)c2ccc(NC(=O)c3cccc4ccsc34)c(C(=O)O)c2)cc1)c1cccc(Cl)c1` [7:5, 2-[(Benzo[b]thiophene-7-carbonyl)-amino]-5-[4-(3-chloro-benzoylamino)-benzoyl]-benzoic acid], for which the inhibition at 10 µM turned out to be 100%. `O=C(Nc1ccc(C(=O)c2ccc(NC(=O)c3cccc4c3OC(F)(F)O4)c(C(=O)O)c2)cc1)c1cccc(Cl)c1` [7:6, 5-[4-(3-Chloro-benzoylamino)-benzoyl]-2-[(2,2-difluoro-benzo[1,3]dioxole-4-carbonyl)-amino]-benzoic acid]: the inhibition at 10 µM stood at 100%. Consider `O=C(Nc1ccc(C(=O)c2ccc(NC(=O)c3cccc(Cl)c3O)c(C(=O)O)c2)cc1)c1cccc(Cl)c1` [7:7, 5-[4-(3-Chloro-benzoylamino)-benzoyl]-2-(3-chloro-2-hydroxy-benzoylamino)-benzoic acid], for which the inhibition at 10 µM turned out to be 82%.

For the molecule `O=C(c1ccc(NS(=O)(=O)c2ccc(Cl)cc2)cc1)c1ccc(NC(=O)c2cc(Cl)ccc2O)c(C(=O)O)c1` [7:8, 5-[4-(4-Chloro-benzenesulfonylamino)-benzoyl]-2-(5-chloro-2-hydroxy-benzoylamino)-benzoic acid], the inhibition at 10 µM came out at 96%.

For the molecule `O=C(c1ccc(NS(=O)(=O)c2ccc(Cl)cc2)cc1)c1ccc(NC(=O)c2cccc(C(F)(F)F)c2F)c(C(=O)O)c1` [7:9, 5-[4-(4-Chloro-benzenesulfonylamino)-benzoyl]-2-(2-fluoro-3-trifluoromethyl-benzoylamino)-benzoic acid], the inhibition at 10 µM was 99%. Take `O=C(c1ccc(NS(=O)(=O)c2ccc(Cl)cc2)cc1)c1ccc(NC(=O)c2cccc(Cl)c2Cl)c(C(=O)O)c1` [7:10, 5-[4-(4-Chloro-benzenesulfonylamino)-benzoyl]-2-(2,3-dichloro-benzoylamino)-benzoic acid]: the inhibition at 10 µM was 99%. As for `O=C(Nc1ccc(C(=O)c2ccc(NS(=O)(=O)c3ccc(Cl)cc3)cc2)cc1C(=O)O)c1cccc(Cl)c1` [7:11, 5-[4-(4-Chloro-benzenesulfonylamino)-benzoyl]-2-(3-chloro-benzoylamino)-benzoic acid], the figure is 98%.

Values taken from patent US20100286215A1, “BIS-AROMATIC COMPOUNDS USEFUL IN THE TREATMENT OF INFLAMMATION” (BIS-AROMATIC COMPOUNDS USEFUL IN THE TREATMENT OF …, priority 2007, published 2010).
